From patent publication US8642656B2, “Calixarene-based peptide conformation mimetics, methods of use, and methods of making” (priority 2004, dated 2014)
Entries after “also recorded” stand apart in the source; their conditions may differ. Read-outs that look alike come from different tables or passages of the source. Ends that are not written are not given here.

How the values were obtained:
LPS from K. pneumoniae = experiment: LPS neutralization assay (Limulus amoebocyte lysate, QCL-1000); format: biochemical, Klebsiella pneumoniae; details: read-out: IC50 values (μM) for LPS binding, Klebsiella
Procedure, shortened: (§1)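 LPS (0.04 units per strain) is mixed with compound and Limulus amoebocyte lysate. Proenzyme activation is then followed by chromogenic substrate cleavage and pNA absorbance at 405-410 nm. Dose-response curves are fit sigmoidally to give IC50.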

[1] = system: LPS from six species of bacteria; experiment: LPS neutralization assay, overall statements; format: biochemical; details: library of 23 compounds
From the text: The ability of compounds to neutralize endotoxin was detected in vitro by using the chromogenic QCL-1000 kit from BioWhittaker, Inc. (Walkersville, Md.), and as described in their protocol. This Limulus amoebocyte lysate (LAL) assay is quantitative for Gram negative bacterial endotoxin (lipopolysaccharide, LPS). In this assay compounds that are active inhibit the LPS-mediated activation of a proenzyme whose active form would release p-nitroaniline (pNA) from a colorless synthetic substrate producing a yellow color (pNA) whose absorption is monitored spectrophotometrically at 405-410 nm. The initial rate of enzyme activation is proportional to the concentration of endotoxin present.
Variants of LPS from six Gram negative bacteria were used: E. coli serotypes 0111:B4 (Combrex, Walkersville, Md.) and 055:B5 (Sigma, St. Louis, Mo.); Klebsiella pneumoniae (List Biologies, San Jose, Calif.); Pseudomonas aeruginosa (List Biologies, San Jose, Calif.); Salmonella typhimurium (List Biologies, San Jose, Calif.), and Serratia marcascens (List Biologies, San Jose, Calif.). The concentration of compound required to neutralize a given LPS and therefore to inhibit the Limulus amoebocyte lysate driven by 0.04 units of any given LPS was determined by dose response curves fit by using a standard sigmoidal function to determined the JC50 value for each lopomimetic compound. […]

LPS from S. typhimurium = experiment: LPS neutralization assay (Limulus amoebocyte lysate, QCL-1000); format: biochemical, Salmonella typhimurium; details: read-out: IC50 values (μM) for LPS binding, Salmonella
Procedure, shortened: as §1

[2] = system: LPS from E. coli serotype 055:B5; experiment: as above; format: biochemical
Procedure, shortened: as §1

[3] = system: LPS from E. coli serotype 0111:B4; experiment: as above; format: biochemical; details: read-out: IC50 values (μM) for LPS binding, E. coli 0111:B4
Procedure, shortened: as §1

LPS from P. aeruginosa = experiment: as above; format: biochemical, Pseudomonas aeruginosa; details: read-out: IC50 values (μM) for LPS binding, P.a.
Procedure, shortened: as §1

[4] = Acute toxicity observed in the endotoxemia model; format: in vivo, mice; details: i.p., single dose of 50 mg/kg, together with LPS
Procedure: (§2) C57 male black mice were injected i.p. with a solution that contained a lethal dose of LPS [600 μg of LPS from E. coli 055:B5 and Salmonella, and 500 μg of LPS from E. coli 011:B4] and 1.25 mg of the lopomimetic compound (a dose of 50 mg/kg) (Rifkind, D. J Bacteriol 93, 1463-4 (1967)). Mice were provided food and water as usual ad libitum, and monitored for several days. When it was observed that mice were in distress and death was imminent, animals were sacrificed; in some cases, mice expired during the night and were found dead the following morning. Data are plotted as the number of surviving mice versus lime in hours. Statistical analysis was performed on the average amount of survival time per group with a maximum or 120 hours (surviving mice) by using the Student's t-test.

LPS from S. marcascens = experiment: LPS neutralization assay (Limulus amoebocyte lysate, QCL-1000); format: biochemical, Serratia marcascens; details: read-out: IC50 values (μM) for LPS binding, Serratia
Procedure, shortened: as §1

LPS from E. coli 055:B5 = experiment: Endotoxemia study in mice, lethal dose of E. coli 055:B5 LPS; format: in vivo; details: E. coli 055:B5 LPS 600 μg; 5 mg/kg
Procedure: In three separate studies, these compounds were tested against LPS derived from E. coli serotype 0111:B4, E. coli serotype 055:B5 LPS, and Salmonella. The compounds (in a final concentration of 2% DMSO v/v), were first mixed individually with LPS, and incubated for 30 minutes prior to i.p. injection into C57/BL6 mice (n=4-8/group). The control mice were treated with DMSO (2% v/v) alone. Each mouse received a lethal dose of LPS, with or without one of the compounds.
as §2, with “J” for “C57 male black mice were injected i.p. with a solution that contained a lethal dose of LPS [600 μg of LPS from E. coli 055:B5 and Salmonella, and 500 μg of LPS from E. coli 011:B4] and 1.25 mg of the lopomimetic compound (a dose of 50 mg/kg) (Rifkind, D. J”

[5] = system: MA148 human ovarian carcinoma; details: 10 mg/kg/day; Dings et al., Cancer Lett 194; cited from earlier work
[6] = Hematocrit levels, first (MA148) study; format: in vivo, mice; details: 10 mg/kg; last day of treatment; vehicle 47±5.7
Procedure: (§3) As an indirect measurement of general toxicity, body weights of mice were monitored twice weekly, using a digital balance (Ohaus Florham, N.J.). To determine hematocrit levels, blood samples were extracted by tail vein bleedings one day after terminating treatment, and blood was collected in heparinized micro-hematocrit capillary lubes (Fisher Pittsburgh, Pa.). Samples were spun down for 10 minutes in a micro-hematocrit centrifuge (Clay-Adams; NY), and the amount of hematocrit was determined using an international microcapillary reader (IEC; Needham, Mass.).

[7] = Toxicity assays in tumor-bearing mice: behavior, body weight, organ morphology; format: in vivo; details: all in vivo tumor experiments
Procedure: as §3

[8] = Hematocrit levels, study with B16 tumors in immune competent mice; format: in vivo; details: vehicle 51±1.4
Procedure: as §3

MA148 tumor = experiment: TUNEL staining for total cell apoptosis, MA148 tumors; format: in vivo, mice; details: MA148, 10 mg/kg; mean ± standard error, 20 images
Procedure: (§4) To assess the extent of total cell apoptosis, tumor tissue sections were stained by using the TUNEL (terminal deoxyribonucleotidyl transferase-mediated dUTP-nick-end labeling) assay, which was performed according to the manufacturer's instructions (In situ cell death detection kit, fluorescein; TUNEL, Roche). After 1-hour incubation at room temperature, slides were washed with PBS and immediately imaged using an Olympus BX-60 fluorescence microscope at 200× magnification.

B16F10 tumor vessels = experiment: Histological analysis of microvessel density, anti-CD31 staining, B16F10 tumors; format: in vivo, mice; details: B16F10, 10 mg/kg; mean ± standard error, 20 images
Procedure: (§5) Immunohistochemistry was used to assess microvessel density and the extent of total cell apoptosis. Approximately, tumors of the same size and with no apparent necrosis were selected for processing. On the last day of treatment mice were sacrificed and tumors were excised. Tumor tissue was embedded in tissue freezing medium (Miles Inc, Elkart, Ind.) and shock frozen in liquid nitrogen. Sections of tissue (10 μm thickness) were prepared for immunohistochemical analysis. For this, tissue sections were brought to room temperature, air dried overnight, and then fixed in acetone for 10 minutes. Slides were allowed to air dry for at least 30 minutes and were washed three limes for 5 minutes each in phosphate-buffered saline (PBS, pH 7.4). Samples were then blocked with PBS containing 0.1% bovine serum albumin and 3% human serum albumin for at least 30 minutes at room temperature in a humidified box. Samples were subsequently incubated with phycoerytrin (PE)-conjugated monoclonal antibody to CD31 (PECAM-1) in a 1:50 dilution (Pharmigen, San Diego, Calif.) to stain for microvessel density.
(§6) Digital images were stored and processed using Adobe Photoshop (Adobe Inc., Mountain View Calif.). Quantification of microvessel density, were determined as described previously (Dings et al., Cancer Res 63, 382-385 (2003)). Statistical analysis was performed using the Student's t-test.

B16F10 tumor cells = experiment: Proliferation of B16F10 tumor cells; format: cell-based, murine
MA148 tumor vessels = experiment: Histological analysis of microvessel density, anti-CD31 staining, MA148 tumors; format: in vivo, mice; details: MA148, 10 mg/kg; mean ± standard error, 20 images
Procedure: as §5, §6

B16F10 tumor = experiment: TUNEL staining for total cell apoptosis, B16F10 tumors; format: in vivo, mice; details: B16F10, 10 mg/kg; mean ± standard error, 20 images
Procedure: as §4

fibroblasts = experiment: Proliferation of fibroblasts (general cell toxicity check); format: cell-based
[9] = Table 2, read-out: IC50 values (μM) for LPS binding, E. coli 055:B4
[10] = Table 3, errors estimated ±30%, read-out: IC50 values (μM) for LPS binding, E. coli 055:B5

In the case of “5,11,17,23-Tetra-tert-butyl-25,26,27,28-tetrakis(4-guanidinobutoxy) calix[4]arene trifloroacetic acid salt [Compound 42]”, the IC50 (LPS from K. pneumoniae; Table 2) is reported as 1 µM, the IC50 (LPS from K. pneumoniae; Table 3, errors estimated ±30%) is reported as 1 µM and the “neutralizing LPS, ranking in words” value [1] is reported as “best LPS neutralizing compounds; also recorded: most effective for neutralizing LPS”. For the same substance, the IC50 (LPS from S. typhimurium; Table 2) was 0.6 µM, the IC50 (LPS from S. typhimurium; Table 3, errors estimated ±30%) was 0.6 µM and the IC50 [2, 9] was 0.04 µM. The IC50 [2, 10] was 0.04 µM, the IC50 ([3]; Table 2) was 0.7 µM and the IC50 ([3]; Table 3, errors estimated ±30%) was 0.7 µM. For the same substance, the IC50 (LPS from P. aeruginosa; Table 2) was 1.5 µM, the IC50 (LPS from P. aeruginosa; Table 3, errors estimated ±30%) was 1.5 µM and the “sign of acute toxicity” value [4] was “did not demonstrate any sign of acute toxicity”. The IC50 (LPS from S. marcascens; Table 2) was over 5 µM, the IC50 (LPS from S. marcascens; Table 3, errors estimated ±30%) was over 5 µM and the “survival of LPS-challenged mice” value (LPS from E. coli 055:B5) was “ineffective”.
In the case of “ANIKLSVQMKLFKRHLKWKIIVKLNDGRELSLD [βpep-25, reference compound]”, the “MA148 tumor inhibition shown previously” value [5] is given as 60 to 70%, the “Hematocrit levels ±SD” value [6] is given as 47±2.8 percentage of red blood cells and the “signs of toxicity (behavior, weight gain, hematocrit), in words” value [7] is given as “did not generally show signs of toxicity”. For the same substance, the “Hematocrit levels ±SD” value [8] was 52.5±3.5 percentage red blood cells, the Apoptosis (MA148 tumor) was 2418 ± 77 pixel counts per image and the “Branch Points” value (B16F10 tumor vessels) was 4.5 ± 0.6 pixel counts per image. For the same substance, the “End Points” value (B16F10 tumor vessels) was 31.9 ± 3.8 pixel counts per image, the “Vessel Density” value (B16F10 tumor vessels) was 14050 ± 1826 pixel counts per image and the “Vessel Length” value (B16F10 tumor vessels) was 10.2 ± 1.2 pixel counts per image. For the same substance, the IC50 (LPS from K. pneumoniae; Table 2) was 2 µM, the IC50 (LPS from K. pneumoniae; Table 3, errors estimated ±30%) was 2 µM and the “IC50 against B16F10 tumor cells” value (B16F10 tumor cells) was “neither demonstrated activity”. For the same substance, the “Branch Points” value (MA148 tumor vessels) was 2.0 ± 0.5 pixel counts per image, the “End Points” value (MA148 tumor vessels) was 16.6 ± 1.8 pixel counts per image and the “Vessel Density” value (MA148 tumor vessels) was 7415 ± 686 pixel counts per image. The “Vessel Length” value (MA148 tumor vessels) was 4.9 ± 0.6 pixel counts per image, the Apoptosis (B16F10 tumor) was 3303 ± 606 pixel counts per image and the “concentration giving 50% growth inhibition, fibroblasts” value (fibroblasts) was “no delectable effects”. It also gave an IC50 (LPS from S. typhimurium; Table 2) of 2.5 µM, an IC50 (LPS from S. typhimurium; Table 3, errors estimated ±30%) of 2.5 µM and an IC50 [2, 9] of 2.5 µM. It also gave an IC50 [2, 10] of 2.5 µM, an IC50 ([3]; Table 2) of 2 µM and an IC50 ([3]; Table 3, errors estimated ±30%) of 2 µM. It also gave an IC50 (LPS from P. aeruginosa; Table 2) of 1.2 µM, an IC50 (LPS from P. aeruginosa; Table 3, errors estimated ±30%) of 1.2 µM and an IC50 (LPS from S. marcascens; Table 2) of 4.1 µM. For the same substance, the IC50 (LPS from S. marcascens; Table 3, errors estimated ±30%) was 4.1 µM.
